Experimental data: ChEMBL document CHEMBL1909046, “DrugMatrix in vitro pharmacology data”

Columns and labels:
[1] = target: T1, C-X-C chemokine receptor type 2 (Homo sapiens, UniProt P25025); assay type: cell membranes, Membrane; settings: cho-k1; further: in other assays of this panel Not Active means under 50% inhibition at 10 µM
T1 sequence (P25025 whole entry): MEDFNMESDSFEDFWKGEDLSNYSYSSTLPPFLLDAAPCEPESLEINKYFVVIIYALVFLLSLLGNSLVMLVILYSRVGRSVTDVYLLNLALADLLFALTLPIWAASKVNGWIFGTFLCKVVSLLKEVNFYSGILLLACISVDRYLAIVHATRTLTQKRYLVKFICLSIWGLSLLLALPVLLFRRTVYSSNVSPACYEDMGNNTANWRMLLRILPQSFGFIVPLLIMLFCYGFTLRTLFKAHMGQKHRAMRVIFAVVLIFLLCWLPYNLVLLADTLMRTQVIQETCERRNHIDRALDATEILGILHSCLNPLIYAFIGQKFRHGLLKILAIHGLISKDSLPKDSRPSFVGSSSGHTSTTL

[2] = target: Sigma non-opioid intracellular receptor 1 (Homo sapiens, UniProt Q99720); assay: DRUGMATRIX: Sigma1 radioligand binding (ligand: [3H] Haloperidol); assay type: cell membranes, Jurkat, Membrane; settings: jurkat; Not Active = under 50% inhibition at 10 µM
Sequence of Sigma non-opioid intracellular receptor 1 (Q99720 whole entry): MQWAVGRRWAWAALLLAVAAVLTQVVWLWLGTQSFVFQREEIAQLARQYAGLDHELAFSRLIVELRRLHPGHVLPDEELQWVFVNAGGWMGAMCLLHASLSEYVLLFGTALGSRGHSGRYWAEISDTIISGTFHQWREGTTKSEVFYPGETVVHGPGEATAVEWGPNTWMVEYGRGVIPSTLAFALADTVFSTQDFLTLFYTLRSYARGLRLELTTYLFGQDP

[3] = target: Prostaglandin G/H synthase 1 (Homo sapiens, UniProt P23219); assay: biochemical; assay type: tissue-based, Platelet; settings: platelet;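 further: inhibition of COX-1 enzyme activity, with arachidonic acid supplied as substrate; in other assays of this panel Not Active means under 50% inhibition at 10 µM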
Sequence of Prostaglandin G/H synthase 1 (P23219 whole entry): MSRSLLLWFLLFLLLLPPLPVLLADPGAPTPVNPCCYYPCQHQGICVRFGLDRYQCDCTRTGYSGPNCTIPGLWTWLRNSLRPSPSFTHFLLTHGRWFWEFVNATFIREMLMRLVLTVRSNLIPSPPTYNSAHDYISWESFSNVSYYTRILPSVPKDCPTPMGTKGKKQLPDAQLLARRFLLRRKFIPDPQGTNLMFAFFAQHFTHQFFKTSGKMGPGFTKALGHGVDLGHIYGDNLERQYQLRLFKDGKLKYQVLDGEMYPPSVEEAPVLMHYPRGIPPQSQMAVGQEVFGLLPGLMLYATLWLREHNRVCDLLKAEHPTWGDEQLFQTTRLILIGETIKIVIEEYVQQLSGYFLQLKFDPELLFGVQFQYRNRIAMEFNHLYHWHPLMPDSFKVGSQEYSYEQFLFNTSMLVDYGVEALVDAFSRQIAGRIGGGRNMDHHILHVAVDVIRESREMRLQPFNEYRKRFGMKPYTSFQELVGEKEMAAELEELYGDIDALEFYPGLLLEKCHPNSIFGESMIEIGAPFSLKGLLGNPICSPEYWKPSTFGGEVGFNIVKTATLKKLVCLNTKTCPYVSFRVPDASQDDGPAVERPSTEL

D(4) dopamine receptor = target: T2, D(4) dopamine receptor (Homo sapiens, UniProt P21917); assay: DRUGMATRIX: Dopamine D4.2 radioligand binding (ligand: [3H] Spiperone); assay type: cell membranes, CHO-K1, Membrane; settings: cho-k1, Not Active = under 50% inhibition at 10 µM
T2 sequence (P21917 whole entry): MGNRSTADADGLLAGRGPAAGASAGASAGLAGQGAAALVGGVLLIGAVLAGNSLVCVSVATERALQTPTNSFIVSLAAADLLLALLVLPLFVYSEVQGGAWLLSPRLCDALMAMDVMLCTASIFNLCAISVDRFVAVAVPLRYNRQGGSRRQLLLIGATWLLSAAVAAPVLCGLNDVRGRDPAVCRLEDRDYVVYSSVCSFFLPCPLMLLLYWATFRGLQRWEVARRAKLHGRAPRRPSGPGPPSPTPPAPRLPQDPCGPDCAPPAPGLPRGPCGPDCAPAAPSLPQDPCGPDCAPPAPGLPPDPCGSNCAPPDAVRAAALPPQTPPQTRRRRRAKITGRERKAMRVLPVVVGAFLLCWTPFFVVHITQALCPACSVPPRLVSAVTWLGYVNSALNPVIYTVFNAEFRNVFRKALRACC

[4] = target: T3, Cholecystokinin receptor type A (Homo sapiens, UniProt P32238); assay type: cell membranes, Membrane; settings: 1321-n1; further: in other assays of this panel Not Active means under 50% inhibition at 10 µM
T3 sequence (P32238 whole entry): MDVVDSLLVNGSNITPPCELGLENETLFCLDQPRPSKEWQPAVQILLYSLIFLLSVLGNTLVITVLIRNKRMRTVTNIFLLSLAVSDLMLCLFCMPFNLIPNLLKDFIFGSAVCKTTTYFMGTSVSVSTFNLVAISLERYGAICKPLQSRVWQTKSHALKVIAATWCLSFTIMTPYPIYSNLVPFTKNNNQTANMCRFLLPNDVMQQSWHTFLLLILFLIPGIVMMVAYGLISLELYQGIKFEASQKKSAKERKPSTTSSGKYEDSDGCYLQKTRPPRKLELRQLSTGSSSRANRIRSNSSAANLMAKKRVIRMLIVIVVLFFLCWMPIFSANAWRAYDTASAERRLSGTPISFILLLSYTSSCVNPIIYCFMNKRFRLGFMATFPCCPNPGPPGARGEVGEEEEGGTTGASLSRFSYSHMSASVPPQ

[5] = DRUGMATRIX: Interleukin IL-1 radioligand binding (ligand: [125I] interleukin 1beta); assay type: cell membranes, Membrane; settings: nih3t3; Not Active = under 50% inhibition at 10 µM
Acetylcholinesterase = Acetylcholinesterase (Homo sapiens, UniProt P22303); assay: DRUGMATRIX: Acetylcholinesterase enzyme inhibition (substrate: acetylthiocholine); assay type: cell-based, HEK293; settings: hek293; Not Active = under 50% inhibition at 10 µM
Sequence of Acetylcholinesterase (P22303 whole entry): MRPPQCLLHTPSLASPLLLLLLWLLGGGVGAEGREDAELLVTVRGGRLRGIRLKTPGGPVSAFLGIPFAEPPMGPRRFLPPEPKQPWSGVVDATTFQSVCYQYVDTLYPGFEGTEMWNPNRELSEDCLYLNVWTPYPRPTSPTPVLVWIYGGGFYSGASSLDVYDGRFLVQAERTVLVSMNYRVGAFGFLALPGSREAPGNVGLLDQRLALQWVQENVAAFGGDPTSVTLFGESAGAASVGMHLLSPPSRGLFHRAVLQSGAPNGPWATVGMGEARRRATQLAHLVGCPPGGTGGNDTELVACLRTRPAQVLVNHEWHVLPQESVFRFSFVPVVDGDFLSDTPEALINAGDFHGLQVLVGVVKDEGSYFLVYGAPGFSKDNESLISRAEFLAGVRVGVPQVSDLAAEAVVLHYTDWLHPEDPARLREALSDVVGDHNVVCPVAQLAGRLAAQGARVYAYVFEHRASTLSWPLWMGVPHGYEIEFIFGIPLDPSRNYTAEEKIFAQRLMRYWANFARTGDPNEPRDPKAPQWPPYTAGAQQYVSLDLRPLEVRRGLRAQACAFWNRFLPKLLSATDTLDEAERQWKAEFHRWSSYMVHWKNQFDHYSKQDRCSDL

Estrogen receptor beta = Estrogen receptor beta (Homo sapiens, UniProt Q92731); settings: sf9; further: in other assays of this panel Not Active means under 50% inhibition at 10 µM
Sequence of Estrogen receptor beta (Q92731 whole entry): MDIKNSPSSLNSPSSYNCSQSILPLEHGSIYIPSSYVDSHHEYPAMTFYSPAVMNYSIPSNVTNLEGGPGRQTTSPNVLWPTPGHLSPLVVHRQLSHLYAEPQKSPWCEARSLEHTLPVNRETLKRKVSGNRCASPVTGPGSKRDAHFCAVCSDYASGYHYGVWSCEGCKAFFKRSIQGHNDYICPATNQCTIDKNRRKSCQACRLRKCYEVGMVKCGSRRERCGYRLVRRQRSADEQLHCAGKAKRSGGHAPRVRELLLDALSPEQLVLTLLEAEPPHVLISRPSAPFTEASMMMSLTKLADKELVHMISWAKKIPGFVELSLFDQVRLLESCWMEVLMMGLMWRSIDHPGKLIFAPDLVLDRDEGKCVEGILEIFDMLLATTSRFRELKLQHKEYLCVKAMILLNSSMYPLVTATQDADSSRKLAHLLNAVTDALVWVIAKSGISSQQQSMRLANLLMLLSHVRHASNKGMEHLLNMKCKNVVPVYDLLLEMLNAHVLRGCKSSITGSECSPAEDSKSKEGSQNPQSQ

Molecule	IC50 [1]	IC50 [2]	IC50 [3]	IC50 (D(4) dopamine receptor)	IC50 [4]	IC50 [5]	Ki [5]	IC50 (Acetylcholinesterase)	IC50 (Estrogen receptor beta)	Ki [1]	Ki [2]	Ki [3]	Ki (D(4) dopamine receptor; read-out: Ki)	Ki [4]	Ki (Acetylcholinesterase)	Ki (Estrogen receptor beta)	Ki (D(4) dopamine receptor)
Cc1nnc2n1-c1ccc(Cl)cc1C(c1ccccc1)=NC2 [ALPRAZOLAM]	Not Active	Not Active	Not Active	Not Active	Not Active	Not Active	Not Active	Not Active	Not Active	–	–	–	–	–	–	–	–
COC(=O)CCc1ccc(OCC(O)CNC(C)C)cc1 (centres undefined) [ESMOLOL]	Not Active	Not Active	Not Active	Not Active	Not Active	Not Active	Not Active	Not Active	Not Active	–	–	–	–	–	–	–	–
NC(=O)C[S+]([O-])C(c1ccccc1)c1ccccc1 (centres undefined) [MODAFINIL]	Not Active	Not Active	Not Active	Not Active	Not Active	Not Active	Not Active	Not Active	Not Active	–	–	–	–	–	–	–	–
NCCCC(O)(P(=O)(O)O)P(=O)(O)O [ALENDRONIC ACID]	Not Active	Not Active	Not Active	Not Active	Not Active	Not Active	Not Active	Not Active	Not Active	–	–	–	–	–	–	–	–
C[C@@H]1CC[C@@]2(OC1)O[C@H]1[C@@H](O)[C@H]3[C@@H]4CC[C@H]5C[C@@H](O[C@@H]6O[C@H](CO)[C@H](O[C@@H]7O[C@H](CO)C(O)[C@H](O[C@@H]8OC[C@@H](O)[C@H](O)[C@H]8O)[C@H]7O[C@@H]7O[C@H](CO)[C@H](O)[C@H](O[C@@H]8O[C@H](CO)[C@@H](O)[C@H](O)[C@H]8O)[C@H]7O)[C@H](O)[C@H]6O)[C@H](O)C[C@]5(C)[C@H]4CC[C@]3(C)[C@H]1[C@@H]2C (some centres undefined) [DIGITONIN]	Not Active	Not Active	Not Active	Not Active	Not Active	Not Active	Not Active	Not Active	Not Active	–	–	–	–	–	–	–	–
O=C1CN=C(c2ccccc2Cl)c2cc([N+](=O)[O-])ccc2N1 [CLONAZEPAM]	Not Active	Not Active	Not Active	Not Active	Not Active	Not Active	Not Active	Not Active	Not Active	–	–	–	–	–	–	–	–
AURANOFIN	Not Active	Not Active	Not Active	–	Not Active	Not Active	Not Active	Not Active	Not Active	Not Active	Not Active	Not Active	0.394 µM	Not Active	Not Active	Not Active	–
COC(=O)Nc1nc2ccc(C(=O)c3cccs3)cc2[nH]1 [NOCODAZOLE]	Not Active	Not Active	Not Active	Not Active	Not Active	Not Active	Not Active	Not Active	Not Active	–	–	–	–	–	–	–	–
C[C@H]1O[C@@H](n2cc(F)c(=O)[nH]c2=O)[C@H](O)[C@@H]1O [DOXIFLURIDINE]	Not Active	Not Active	Not Active	Not Active	Not Active	Not Active	Not Active	Not Active	Not Active	–	–	–	–	–	–	–	–
CC(C(=O)O)c1ccc2oc(-c3ccc(Cl)cc3)nc2c1 (centres undefined) [BENOXAPROFEN]	Not Active	Not Active	Not Active	Not Active	Not Active	Not Active	Not Active	Not Active	Not Active	–	–	–	–	–	–	–	–
GADOPENTETATE DIMEGLUMINE	Not Active	Not Active	Not Active	Not Active	Not Active	Not Active	Not Active	Not Active	Not Active	Not Active	Not Active	Not Active	–	Not Active	Not Active	Not Active	Not Active
Nc1ccc2c3c(cccc13)C(=O)NC2=O	Not Active	Not Active	Not Active	Not Active	Not Active	Not Active	Not Active	Not Active	Not Active	–	–	–	–	–	–	–	–
C[n+]1ccccc1/C=N/O.[Cl-] [PRALIDOXIME CHLORIDE]	Not Active	Not Active	Not Active	Not Active	Not Active	Not Active	Not Active	Not Active	Not Active	–	–	–	–	–	–	–	–
O=c1cnn([C@@H]2O[C@H](CO)[C@@H](O)[C@H]2O)c(=O)[nH]1 [6-AZAURIDINE]	Not Active	Not Active	Not Active	Not Active	Not Active	Not Active	Not Active	Not Active	Not Active	–	–	–	–	–	–	–	–
Cn1c(=O)c2c(ncn2CC(O)CO)n(C)c1=O (centres undefined) [DYPHYLLINE]	Not Active	Not Active	Not Active	Not Active	Not Active	Not Active	Not Active	Not Active	Not Active	–	–	–	–	–	–	–	–
O=c1cc(N2CCOCC2)oc2c(-c3ccccc3)cccc12 [LY-294002]	Not Active	Not Active	Not Active	Not Active	Not Active	Not Active	Not Active	Not Active	Not Active	–	–	–	–	–	–	–	–
C[C@@H]1C[C@H]2[C@@H]3CCC4=CC(=O)C=C[C@]4(C)[C@@]3(F)[C@@H](O)C[C@]2(C)[C@H]1C(=O)CO [DESOXIMETASONE]	Not Active	Not Active	Not Active	Not Active	Not Active	Not Active	Not Active	Not Active	Not Active	–	–	–	–	–	–	–	–
CCn1cc(C(=O)O)c(=O)c2cnc(N3CCCC3)nc21 [PIROMIDIC ACID]	Not Active	Not Active	Not Active	Not Active	Not Active	Not Active	Not Active	Not Active	Not Active	–	–	–	–	–	–	–	–
CCN(CC)CCOCCC1=CCC2CC1C2(C)C (centres undefined) [MYRTECAINE]	Not Active	Not Active	Not Active	Not Active	Not Active	Not Active	Not Active	Not Active	Not Active	–	–	–	–	–	–	–	–
CC(=O)[C@@]1(O)CC[C@H]2[C@@H]3CCC4=CC(=O)CC[C@]4(C)[C@H]3CC[C@@]21C [HYDROXYPROGESTERONE]	Not Active	Not Active	Not Active	Not Active	Not Active	Not Active	Not Active	Not Active	Not Active	–	–	–	–	–	–	–	–
C[C@@H](CO)NC(=O)[C@@H]1C=C2c3cccc4[nH]cc(c34)C[C@H]2N(C)C1 [ERGONOVINE]	Not Active	Not Active	Not Active	Not Active	–	Not Active	Not Active	Not Active	Not Active	–	–	–	–	–	–	–	–
CC(=O)O[C@H]1C(=O)[C@@]2(C)[C@H]([C@H](OC(=O)c3ccccc3)[C@]3(O)C[C@H](OC(=O)[C@H](O)[C@@H](NC(=O)c4ccccc4)c4ccccc4)C(C)=C1C3(C)C)[C@]1(OC(C)=O)CO[C@@H]1C[C@@H]2O [PACLITAXEL]	Not Active	Not Active	Not Active	Not Active	–	Not Active	Not Active	Not Active	Not Active	–	–	–	–	–	–	–	–
